pIC50: −log10 of the molar value.
target: T1, CDK8/CycC (Homo sapiens, UniProt P49336); assay: FRET based Lanthascreen binding competition assay for CDK8 inhibitory activity; conditions: CDK8 co-expressed with CycC; class symbols; read-out: IC50
T1 construct: purchased Invitrogen PV4402
Excerpt: Biochemical Assay for CDK8 Inhibitory Activity FRET based Lanthascreen binding competition assay: A dye-labeled ATP competitive probe served as a FRET acceptor upon binding to CDK8 labeled with a strepavidin -Eu-chelate (via a biotinylated anti His antibody). The result was a fluorescence signal at 647 nm. In case this probe was competed by an inhibitor, such a signal cannot be generated any more. The CDK8 used for this assay was a protein co-expressed with CycC. The assay procedure for an assay in a 1536 well plate was performed according to the following: 2 μL CDK8/biotin-anti-His Ab/SA-Eu mix in Assay buffer were pipetted into the wells of a micro plate. 1 μL compound in 20 mM Hepes buffer/5% DMSO was added. The plate was shaken for 30 sec and incubated for 20 min at RT. 2 μL Alexa647-probe in assay buffer were added. The plate was shaken for 30 sec again and incubated for 60 min at RT in the dark. Then the plate was read out on a Perkin Elmer Envision (mode LANCE/TRF, excitation 340 nm emission 650 nm). […] The readouts were fitted to IC50 curves using Genedata Condoseo.

T1 sequence (P49336 whole entry): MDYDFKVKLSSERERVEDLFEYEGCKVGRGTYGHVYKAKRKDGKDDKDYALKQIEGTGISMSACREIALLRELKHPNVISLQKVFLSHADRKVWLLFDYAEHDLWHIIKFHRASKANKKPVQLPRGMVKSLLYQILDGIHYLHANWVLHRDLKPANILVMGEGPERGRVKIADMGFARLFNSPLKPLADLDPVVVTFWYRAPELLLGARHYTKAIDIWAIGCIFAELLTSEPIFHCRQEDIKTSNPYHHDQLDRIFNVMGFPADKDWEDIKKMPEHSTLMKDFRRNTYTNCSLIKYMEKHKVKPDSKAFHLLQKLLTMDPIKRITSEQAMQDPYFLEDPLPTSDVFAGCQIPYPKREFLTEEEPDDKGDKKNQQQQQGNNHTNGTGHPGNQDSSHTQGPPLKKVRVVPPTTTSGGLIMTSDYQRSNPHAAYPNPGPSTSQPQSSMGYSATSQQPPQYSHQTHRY
T1 sequence (P24863 whole entry partner): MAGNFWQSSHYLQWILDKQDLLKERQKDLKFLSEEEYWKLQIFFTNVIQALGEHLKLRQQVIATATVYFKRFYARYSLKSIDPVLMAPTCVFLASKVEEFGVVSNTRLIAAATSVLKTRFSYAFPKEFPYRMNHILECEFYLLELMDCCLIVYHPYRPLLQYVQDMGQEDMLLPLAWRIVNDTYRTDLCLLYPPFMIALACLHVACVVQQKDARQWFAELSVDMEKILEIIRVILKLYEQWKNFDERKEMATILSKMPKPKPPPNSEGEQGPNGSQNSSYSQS

Row | Compound | pIC50
1 | CC(C)Cc1n[nH]c2ccc(C(=O)N3CCC[C@H]3c3ccc(Cl)cc3)cc12 [compound 31] | > 8.00
2 | CSc1ccccc1[C@@H]1CCCN1C(=O)c1cnc2[nH]nc(C)c2c1 [compound 33, (3-Methyl-1H-pyrazolo[3,4-b]pyridin-5-yl)-[(S)-2-(2-methylsulfanyl-phenyl)-pyrrolidin-1-yl]-methanone] | 6.00 to 7.00
3 | CSc1ccccc1[C@H]1CCCN1C(=O)c1cnc2[nH]nc(C)c2c1 [compound 34, (3-Methyl-1H-pyrazolo[3,4-b]pyridin-5-yl)-[(R)-2-(2-methylsulfanyl-phenyl)-pyrrolidin-1-yl]-methanone] | 6.00 to 7.00
4 | Cc1n[nH]c2ncc(C(=O)N3CC[C@H](c4ccccc4)C3)cc12 [compound 40, (3-Methyl-1H-pyrazolo[3,4-b]pyridin-5-yl)-((R)-3-phenyl-pyrrolidin-1-yl)-methanone] | 6.00 to 7.00
5 | Cc1n[nH]c2ncc(C(=O)N3CC[C@@H](c4ccccc4)C3)cc12 [compound 41, (3-Methyl-1H-pyrazolo[3,4-b]pyridin-5-yl)-((S)-3-phenyl-pyrrolidin-1-yl)-methanone] | 7.00 to 8.00
6 | Cc1n[nH]c2ccc(C(=O)N3CCC[C@H]3c3ccc(Br)cc3)cc12 [compound 49, [(S)-2-(4-Bromo-phenyl)-pyrrolidin-1-yl]-(3-methyl-1H-indazol-5-yl)-methanone] | > 8.00
7 | Cc1n[nH]c2ccc(C(=O)N3CCC[C@@H]3c3ccc(Br)cc3)cc12 [compound 50, [(R)-2-(4-Bromo-phenyl)-pyrrolidin-1-yl]-(3-methyl-1H-indazol-5-yl)-methanone] | 6.00 to 7.00
8 | Cc1n[nH]c2ccc(C(=O)N3CCC[C@@H]3c3ccc(Br)cc3)nc12 [compound 53, [(R)-2-(4-Bromo-phenyl)-pyrrolidin-1-yl]-(3-methyl-1H-pyrazolo[4,3-b]pyridin-5-yl)-methanone] | 6.00 to 7.00
9 | Cc1n[nH]c2ccc(C(=O)N3CCC[C@H]3c3ccc(Br)cc3)nc12 [compound 54, [(S)-2-(4-Bromo-phenyl)-pyrrolidin-1-yl]-(3-methyl-1H-pyrazolo[4,3-b]pyridin-5-yl)-methanone] | > 8.00
10 | Cc1n[nH]c2ncc(C(=O)N3CCCCC(c4ccc(Cl)cc4)C3)cc12 (centres unmarked) [compound 59, [3-(4-Chloro-phenyl)-azepan-1-yl]-(3-methyl-1H-pyrazolo[3,4-b]pyridin-5-yl)-methanone] | 7.00 to 8.00
11 | Cc1n[nH]c2ncc(C(=O)N3CCCC3c3ccc(C(F)(F)F)cc3)cc12 (centres unmarked) [compound 63, (3-Methyl-1H-pyrazolo[3,4-b]pyridin-5-yl)-[2-(4-trifluoromethyl-phenyl)-pyrrolidin-1-yl]-methanone] | > 8.00
12 | Cc1n[nH]c2ncc(C(=O)N3CCCC3c3ccccc3OCC(F)(F)F)cc12 (centres unmarked) [compound 65, (3-Methyl-1H-pyrazolo[3,4-b]pyridin-5-yl)-{2-[2-(2,2,2-trifluoro-ethoxy)-phenyl]-pyrrolidin-1-yl}-methanone] | 6.00 to 7.00
13 | Cc1n[nH]c2ncc(C(=O)N3CCCC(c4ccccc4)C3)cc12 (centres unmarked) [compound 66, (3-Methyl-1H-pyrazolo[3,4-b]pyridin-5-yl)-(3-phenyl-piperidin-1-yl)-methanone] | 6.00 to 7.00
14 | Cc1n[nH]c2ncc(C(=O)N3CCCC(c4ccc(Cl)cc4)C3)cc12 (centres unmarked) [compound 67, [3-(4-Chloro-phenyl)-piperidin-1-yl]-(3-methyl-1H-pyrazolo[3,4-b]pyridin-5-yl)-methanone] | 7.00 to 8.00
15 | Cc1n[nH]c2ncc(C(=O)N3CCC(c4ccc(Cl)cc4)C3)cc12 (centres unmarked) [compound 68, [3-(4-Chloro-phenyl)-pyrrolidin-1-yl]-(3-methyl-1H-pyrazolo[3,4-b]pyridin-5-yl)-methanone] | > 8.00
16 | O=C(c1cnc2[nH]nc(C3CC3)c2c1)N1CCCC1c1ccc(Cl)cc1 (centres unmarked) [compound 70, [2-(4-Chloro-phenyl)-pyrrolidin-1-yl]-(3-cyclopropyl-1H-pyrazolo[3,4-b]pyridin-5-yl)-methanone] | 7.00 to 8.00
17 | O=C(c1cnc2[nH]nc(C(F)(F)F)c2c1)N1CCCC1c1ccc(Cl)cc1 (centres unmarked) [compound 71, [2-(4-Chloro-phenyl)-pyrrolidin-1-yl]-(3-trifluoromethyl-1H-pyrazolo[3,4-b]pyridin-5-yl)-methanone] | 7.00 to 8.00

Further lines, results first:

Row | pIC50 | Compound
18 | 6.00 to 7.00 | Cc1n[nH]c2ncc(C(=O)N3CCCC3c3ccncc3)cc12 (centres unmarked) [compound 32, (3-Methyl-1H-pyrazolo[3,4-b]pyridin-5-yl)-(2-pyridin-4-yl-pyrrolidin-1-yl)-methanone]
19 | 7.00 to 8.00 | Cc1n[nH]c2ncc(C(=O)N3CCC[C@H]3c3ccccc3Cl)cc12 [compound 36, [(S)-2-(2-Chloro-phenyl)-pyrrolidin-1-yl]-(3-methyl-1H-pyrazolo[3,4-b]pyridin-5-yl)-methanone]
20 | 6.00 to 7.00 | Cc1n[nH]c2ncc(C(=O)N3CCC[C@@H]3c3ccccc3Cl)cc12 [compound 37, [(R)-2-(2-Chloro-phenyl)-pyrrolidin-1-yl]-(3-methyl-1H-pyrazolo[3,4-b]pyridin-5-yl)-methanone]
21 | 6.00 to 7.00 | Cc1n[nH]c2ncc(C(=O)N3CCC[C@@H]3c3ccccc3)cc12 [compound 38, (3-Methyl-1H-pyrazolo[3,4-b]pyridin-5-yl)-((R)-2-phenyl-pyrrolidin-1-yl)-methanone]
22 | > 8.00 | Cc1n[nH]c2ncc(C(=O)N3CCC[C@H]3c3ccccc3)cc12 [compound 39, (3-Methyl-1H-pyrazolo[3,4-b]pyridin-5-yl)-((S)-2-phenyl-pyrrolidin-1-yl)-methanone]
23 | > 8.00 | Cc1n[nH]c2ncc(C(=O)N3CCC[C@H]3c3ccc(F)cc3)cc12 [compound 43, [(S)-2-(4-Fluoro-phenyl)-pyrrolidin-1-yl]-(3-methyl-1H-pyrazolo[3,4-b]pyridin-5-yl)-methanone]
24 | 6.00 to 7.00 | Cc1n[nH]c2ncc(C(=O)N3CCC[C@@H]3c3ccc(F)cc3)cc12 [compound 44, [(R)-2-(4-Fluoro-phenyl)-pyrrolidin-1-yl]-(3-methyl-1H-pyrazolo[3,4-b]pyridin-5-yl)-methanone]
25 | 6.00 to 7.00 | Cc1n[nH]c2ncc(C(=O)N3CCC[C@@H]3c3cccc(Cl)c3)cc12 [compound 45, [(r)-2-(3-Chloro-phenyl)-pyrrolidin-1-yl]-(3-methyl-1H-pyrazolo[3,4-b]pyridin-5-yl)-methanone]
26 | 7.00 to 8.00 | Cc1n[nH]c2ncc(C(=O)N3CCC[C@H]3c3cccc(Cl)c3)cc12 [compound 46, [(S)-2-(3-Chloro-phenyl)-pyrrolidin-1-yl]-(3-methyl-1H-pyrazolo[3,4-b]pyridin-5-yl)-methanone]
27 | 7.00 to 8.00 | Cc1n[nH]c2ncc(C(=O)N3CCC3c3ccc(Cl)cc3)cc12 (centres unmarked) [compound 55, [2-(4-Chloro-phenyl)-azetidin-1-yl]-(3-methyl-1H-pyrazolo[3,4-b]pyridin-5-yl)-methanone]
28 | 7.00 to 8.00 | Cc1n[nH]c2ncc(C(=O)N3CC[C@H]3c3ccc(F)cc3)cc12 [compound 56, [(S)-2-(4-Fluoro-phenyl)-azetidin-1-yl]-(3-methyl-1H-pyrazolo[3,4-b]pyridin-5-yl)-methanone]
29 | 6.00 to 7.00 | Cc1n[nH]c2ncc(C(=O)N3CCCCCC3c3ccc(Cl)cc3)cc12 (centres unmarked) [compound 57, [2-(4-Chloro-phenyl)-azepan-1-yl]-(3-methyl-1H-pyrazolo[3,4-b]pyridin-5-yl)-methanone]
30 | 7.00 to 8.00 | Cc1n[nH]c2ncc(C(=O)N3CCCCCC3c3cccc(F)c3)cc12 (centres unmarked) [compound 58, [2-(3-Fluoro-phenyl)-azepan-1-yl]-(3-methyl-1H-pyrazolo[3,4-b]pyridin-5-yl)-methanone]
31 | > 8.00 | Cc1ccc(C2CCCN2C(=O)c2cnc3[nH]nc(C)c3c2)cc1 (centres unmarked) [compound 62, (3-Methyl-1H-pyrazolo[3,4-b]pyridin-5-yl)-(2-p-tolyl-pyrrolidin-1-yl)-methanone]
32 | 7.00 to 8.00 | Cc1n[nH]c2ncc(C(=O)N3CCCC3c3ccc(Cl)c(F)c3)cc12 (centres unmarked) [compound 69, [2-(4-Chloro-3-fluoro-phenyl)-pyrrolidin-1-yl]-(3-methyl-1H-pyrazolo[3,4-b]pyridin-5-yl)-methanone]

same assay, conditions: IC50 [μM], CDK8 co-expressed with CycC; class symbols

Row | Compound | IC50 [µM]
33 | Cc1n[nH]c2ccc(C(=O)N3CCC[C@@H]3c3ccc(Cl)cc3)cc12 [compound 47, [(R)-2-(4-Chloro-phenyl)-pyrrolidin-1-yl]-(3-methyl-1H-indazol-5-yl)-methanone] | 0.1 to 1
34 | Cc1n[nH]c2ccc(C(=O)N3CCC[C@H]3c3ccc(Cl)cc3)cc12 [compound 48, [(S)-2-(4-Chloro-phenyl)-pyrrolidin-1-yl]-(3-methyl-1H-indazol-5-yl)-methanone] | < 0.01
35 | Cc1n[nH]c2ccc(C(=O)N3CCC[C@H]3c3ccc(Cl)cc3)nc12 [compound 52, [(S)-2-(4-Chloro-phenyl)-pyrrolidin-1-yl]-(3-methyl-1H-pyrazolo[4,3-b]pyridin-5-yl)-methanone] | < 0.01
36 | Nc1n[nH]c2ccc(C(=O)N3CCCC3c3ccc(Br)cc3)cc12 (centres unmarked) [compound 74, (3-Amino-1H-indazol-5-yl)-[2-(4-bromo-phenyl)-pyrrolidin-1-yl]-methanone] | < 0.01
37 | Nc1n[nH]c2ccc(C(=O)N3CCC[C@H]3c3ccc(Br)cc3)cc12 [compound 76, (3-Amino-1H-indazol-5-yl)-[(S)-2-(4-bromo-phenyl)-pyrrolidin-1-yl]-methanone] | < 0.01
38 | Nc1n[nH]c2ccc(C(=O)N3CCC[C@@H]3c3ccc(Br)cc3)cc12 [compound 77, (3-Amino-1H-indazol-5-yl)-[(R)-2-(4-bromo-phenyl)-pyrrolidin-1-yl]-methanone] | 0.1 to 1

Source: patent publication US9862717B2 (Merck Patent GmbH, priority 2014, dated 2018)
